Results published in US5721338A, “Inhibitors of oligosaccharyl transferase” (California Institute of Technology, priority 1995, dated 1998).
Starred links: 1 amine or outer side, 2 acyl side, 3 side chain; linkers in the order of their positions; H or OH if unused. Positions of bridges follow the written chain, without caps; N, C: chain ends. Non-standard residues stand in square brackets, D forms with d. Residues, ends and D or L forms follow the SMILES beside them. Phe(4-NO2) = N[C@@H](Cc1ccc([N+](=O)[O-])cc1)C(=O)O; X1 = O=C(CCCCC[*:2])[*:1]; Dab = NCC[C@H](N)C(=O)O

Columns and labels:
[1] = target: T1, S. Cerevisiae Oligosaccharyl Transferase (Saccharomyces cerevisiae, UniProt P39007); assay: Inhibition kinetics (competitive inhibition) with solubilized yeast oligosaccharyl transferase; glycopeptide production from Dol-P-P-GlcNAc-[3H]-GlcNAc and Bz-Asn-Leu-Thr-NHMe; format: biochemical; conditions: 37.5 μM Bz-Asn-Leu-Thr-NHMe, control rate 701 dpm min^-1
T1 construct: a solubilized preparation of the yeast enzyme oligosaccharyl transferase; endogenous in cells; host or cells: Saccharomyces cerevisiae (crude, Triton-solubilized enzyme preparation)
Experimental: (§1) Inhibition kinetics with 2 and S. Cerevisiae Oligosaccharyl Transferase:
(§2) Prior to assaying, 26.3 μL of the crude enzyme were equilibrated for thirty minutes in the presence of 197.4 μL assay buffer (50 mM Hepes, pH 7.5, 1% Triton-X, 140 mM sucrose, 0.5 mg/mL phosphatidylcholine, and 10 mM MnCl2) and 13.15 μL 750 μM Bz-Asn-Leu-Thr-NHMe in DMSO. […] A 100,000 dpm aliquot of Dol-P-P-GlcNAc-[^3 H]-GlcNAc (specific activity 36.5 Ci/mmol) was brought to dryness in an eppendorf. The lipid-linked donor was then redissolved 10 μL assay buffer. The assay was initiated by the addition of 190 μL of the equilibrated enzyme. Four time points were obtained by removing 40 μL aliquots at 1.5 minute intervals. Each aliquot was quenched in a solution of 1.2 mL 3/2/1 chloroform/methanol/4 mM MgCl2. The aqueous layer was removed and the organic layer was washed twice with 0.6 mL TUP. The aqueous layers were combined and counted (dpm) in 5 mL Ecolite (ICN). The organic layers were brought to dryness under nitrogen solvable (200 μL, Dupont) was added to each organic fraction and agitated for 45 minutes. The organic layers were counted (dpm) in 7 mL Formula 989 (DuPont). Glycopeptide production is expressed as disintegrations per minute based on the values obtained from the dpms of the aqueous layer corrected for the total dpms in the aqueous and organic layers combined.

[2] = substrate: CNC(=O)[C@@H](NC(=O)[C@H](CC(C)C)NC(=O)[C@H](CC(N)=O)NC(=O)c1ccccc1)[C@@H](C)O; assay: as above; format: biochemical, S. Cerevisiae; conditions: other: competing substrate of OT, used in the Ki equation; pH 7.5
Experimental: as §1, §2

Row | Molecule | rate of glycopeptide production ([1]; 10 nM solution of 2) [dpm min^-1] | rate of glycopeptide production ([1]; 100 nM solution of 2) [dpm min^-1] | Km [2] [µM]
1 | CC(C)[C@H](NC(=O)[C@@H](NC(=O)[C@@H]1CSCCCCCC(=O)N[C@@H](CCN)C(=O)N1)[C@@H](C)O)C(=O)N[C@H](C(=O)N[C@@H](Cc1ccc([N+](=O)[O-])cc1)C(N)=O)[C@@H](C)O [Compound 2, Cyclo(Amb-Cys)-Thr-Val-Thr-Nph] ([Dab]CTVT[Phe(4-NO2)]-NH2; linker N-2 via X1) | 572 | 296 | –
2 | S. Cerevisiae Oligosaccharyl Transferase (Saccharomyces cerevisiae S288C) (protein, a solubilized preparation of the yeast enzyme oligosaccharyl transferase; endogenous in cells; host or cells: Saccharomyces cerevisiae (crude, Triton-solubilized enzyme preparation)) MGSDRSCVLSVFQTILKLVIFVAIFGAAISSRLFAVIKFESIIHEFDPWFNYRATKYLVNNSFYKFLNWFDDRTWYPLGRVTGGTLYPGLMTTSAFIWHALRNWLGLPIDIRNVCVLFAPLFSGVTAWATYEFTKEIKDASAGLLAAGFIAIVPGYISRSVAGSYDNEAIAITLLMVTFMFWIKAQKTGSIMHATCAALFYFYMVSAWGGYVFITNLIPLHVFLLILMGRYSSKLYSAYTTWYAIGTVASMQIPFVGFLPIRSNDHMAALGVFGLIQIVAFGDFVKGQISTAKFKVIMMVSLFLILVLGVVGLSALTYMGLIAPWTGRFYSLWDTNYAKIHIPIIASVSEHQPVSWPAFFFDTHFLIWLFPAGVFLLFLDLKDEHVFVIAYSVLCSYFAGVMVRLMLTLTPVICVSAAVALSKIFDIYLDFKTSDRKYAIKPAALLAKLIVSGSFIFYLYLFVFHSTWVTRTAYSSPSVVLPSQTPDGKLALIDDFREAYYWLRMNSDEDSKVAAWWDYGYQIGGMADRTTLVDNNTWNNTHIAIVGKAMASPEEKSYEILKEHDVDYVLVIFGGLIGFGGDDINKFLWMIRISEGIWPEEIKERDFYTAEGEYRVDARASETMRNSLLYKMSYKDFPQLFNGGQATDRVRQQMITPLDVPPLDYFDEVFTSENWMVRIYQLKKDDAQGRTLRDVGELTRSSTKTRRSIKRPELGLRV | – | – | 25
